Laboratory results from US10399939B2, “Tetrahydronaphthalene estrogen receptor modulators and uses thereof” (Genentech, Inc., priority 2015, dated 2019).

Target: ER-alpha (WT) (Homo sapiens (Human), UniProt P03372)
Experiment: Breast Cancer Cell ERa High Content Fluorescence Imaging Degradation Assay (ER-alpha MCF7 HCS)
Assay type: cell-based
Conditions: MCF7 breast cancer cells; for ER-alpha (WT) MCF7 HCS (S inf): plateau of the maximal effect (ERa degradation), DMSO and 5 nM Fulvestrant define 0% and 100% changes in ESR1
Procedure: Example 901: Breast Cancer Cell ERa High Content Fluorescence Imaging Degradation Assay
MCF7 breast cancer cells were seeded on day 1 at a density of 10,000 cells per well in 384 well poly-lysine coated tissue culture plate (Greiner # T-3101-4), in 50 µL/well RPMI (phenol red free), 10% FBS (Charcoal stripped), containing L-glutamine. […] Compounds and controls were dispensed using a Labcyte Echo acoustic dispenser to dispense compounds with a pre-defined serial dilution (1.8×, 10 point, in duplicate) and appropriate backfill and control compounds (final total volume transferred was 417.5 nL and compound dispense volume ranges from 2.5 nL to 417.5 nL; 0.84% DMSO (v/v) final), ultimately producing a concentration range from 0.05 nM to 835 nM. Cell plates were incubated at 37° C., for 4 hours. Fixation and permeabilization were carried out using a Biotek EL406 plate washer and dispenser as follows. Cells were fixed by addition of 15 μL of 16% paraformaldehyde (Electron Microscopy Sciences #15710-S) directly to the 50 μL cell culture medium in each well using the peristaltic pump 5 μL cassette on a Biotek EL406 (final concentration of formaldehyde was 3.7% w/v). Samples were incubated 30 minutes. Well contents was aspirated and 50 μL/well of Phosphate Buffered Saline (PBS) containing 0.5% w/v bovine serum albumen, 0.5% v/v Triton X-100 (Antibody Dilution Buffer) was added to each well. Samples were incubated for 30 minutes. Well contents were aspirated and washed 3 times with 100 μL/well of PBS. Immunofluorescence staining of estrogen receptor alpha (ESR1) was carried out using a Biotek EL406 plate washer and dispenser as follows. The well supernatant was aspirated from the wells and 25 μL/well of anti-ESR1 mAb (F10) (Santa Cruz sc-8002) diluted 1:1000 in Antibody Dilution Buffer was dispensed. Samples were incubated for 2 hours at room temperature. Samples were washed 4 times with 100 μL/well of PBS. 25 μL (microliters)/well of secondary antibody solution (Alexafluor® 488 conjugate anti-mouse IgG (LifeTechnologies #A21202) diluted 1:1000 and Hoechst 33342 1 μg/ml diluted in Antibody Dilution Buffer) were dispensed into each well. Samples were incubated for 2 hours at room temperature. Samples were washed 3 times with 100 μL/well of PBS using a Biotek EL406. Quantitative fluorescence imaging of ESR1 was carried out using a Cellomics Arrayscan V® (Thermo). Fluorescence images of the samples (Channel 1: XF53 Hoechst (DNA stain); Channel 2: XF53 FITC (ESR1 stain)) were acquired using a Cellomics VTI Arrayscan using the Bioapplication “Compartmental Analysis” using the auto-exposure (based on DMSO control wells) setting “peak target percentile” set to 25% target saturation for both channels. Channel 1 (DNA stain) was used to define the nuclear region (Circ). Measurements of “Mean_CircAvgIntCh2”, which is the Alexafluor 488 fluorescence intensity (ESR1) within the nuclear region, was measured on a per cell basis and averaged over all the measured cells. Data analysis was carried out using Genedata Screener Software, with DMSO and 5 nM Fulvestrant treated samples being used to define the 0% and 100% changes in ESR1. The “Robust Fit” method was used to define the inflexion point of curve (EC50) and the plateau of the maximal effect (Sinf).

[1] = 4 hours incubation, inflexion point of curve

Chain of ER-alpha (WT) (P03372 whole entry): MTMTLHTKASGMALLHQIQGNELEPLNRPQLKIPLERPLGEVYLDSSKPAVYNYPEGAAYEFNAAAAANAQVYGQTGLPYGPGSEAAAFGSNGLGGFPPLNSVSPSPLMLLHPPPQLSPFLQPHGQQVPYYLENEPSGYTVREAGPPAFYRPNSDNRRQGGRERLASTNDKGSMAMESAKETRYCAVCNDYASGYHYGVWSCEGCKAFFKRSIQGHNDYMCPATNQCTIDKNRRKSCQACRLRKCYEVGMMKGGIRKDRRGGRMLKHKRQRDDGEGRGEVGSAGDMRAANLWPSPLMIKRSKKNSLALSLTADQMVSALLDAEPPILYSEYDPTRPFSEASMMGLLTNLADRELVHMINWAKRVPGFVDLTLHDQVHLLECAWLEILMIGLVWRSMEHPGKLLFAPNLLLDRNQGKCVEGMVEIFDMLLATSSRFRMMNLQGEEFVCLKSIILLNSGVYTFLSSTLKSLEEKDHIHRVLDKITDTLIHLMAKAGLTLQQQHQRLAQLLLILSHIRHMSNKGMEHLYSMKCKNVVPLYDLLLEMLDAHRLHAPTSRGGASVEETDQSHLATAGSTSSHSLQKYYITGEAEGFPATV

SMILES	EC50 [1]	ER-alpha (WT) MCF7 HCS (S inf)	ER-alpha (WT) MCF7 HCS (EC50) [1]
Oc1ccc2c(c1)CC[C@H](c1ccccc1)[C@@H]2c1ccc(OCCN2CC(C(F)F)C2)cc1 [Compound 118, (5R,6S)-5-(4-(2-(3-(difluoromethyl)azetidin-1-yl)ethoxy)phenyl)-6-phenyl-5,6,7,8-tetrahydronaphthalen-2-ol]	0.184 nM	−93.6%	–
C[C@@H](COc1ccc([C@@H]2c3ccc(O)cc3CC[C@@H]2c2ccccc2)cc1)N1CC[C@@H](CF)C1 [Compound 123, (5R,6S)-5-(4-((S)-2-((R)-3-(fluoromethyl)pyrrolidin-1-yl)propoxy)phenyl)-6-phenyl-5,6,7,8-tetrahydronaphthalen-2-ol]	16.9 nM	−30%	–
Oc1ccc2c(c1)CC[C@H](C1CCC(F)(F)CC1)[C@@H]2c1ccc(OCCN2CC(CF)C2)cc1 [Compound 110, (5R,6R)-6-(4,4-difluorocyclohexyl)-5-(4-(2-(3-(fluoromethyl)azetidin-1-yl)ethoxy)phenyl)-5,6,7,8-tetrahydronaphthalen-2-ol]	0.177 nM	−98.2%	–
Oc1ccc2c(c1)CC[C@H](c1ccccc1)[C@@H]2c1ccc(NCCN2CC(CF)C2)cc1 [Compound 137, (5R,6S)-5-(4-((2-(3-(fluoromethyl)azetidin-1-yl)ethyl)amino)phenyl)-6-phenyl-5,6,7,8-tetrahydronaphthalen-2-ol]	186 nM	−80%	–
N#Cc1ccc([C@H]2CCc3cc(O)ccc3[C@H]2c2ccc(OCCN3CC(CF)C3)cc2)cc1 [Compound 133, 4-((1R,2S)-1-(4-(2-(3-(fluoromethyl)azetidin-1-yl)ethoxy)phenyl)-6-hydroxy-1,2,3,4-tetrahydronaphthalen-2-yl)benzonitrile]	53 nM	−30%	–
Oc1ccc2c(c1)CCC1(CCCC1)[C@@H]2c1ccc(OCCN2CC(CF)C2)cc1 [Compound 122, (R)-1′-(4-(2-(3-(fluoromethyl)azetidin-1-yl)ethoxy)phenyl)-3′,4′-dihydro-1′H-spiro[cyclopentane-1,2′-naphthalen]-6′-ol]	0.451 nM	−99.2%	–
Oc1ccc2c(c1)CC[C@@H](c1ccccc1)[C@H]2c1ccc(OCCN2CC(CF)C2)nc1 [Compound 128, (5R,6R)-5-(6-(2-(3-(fluoromethyl)azetidin-1-yl)ethoxy)pyridin-3-yl)-6-phenyl-5,6,7,8-tetrahydronaphthalen-2-ol]	12.5 nM	−84%	–
Oc1ccc2c(c1)CC[C@@H](C1CCOCC1)[C@H]2c1ccc(OCCN2CC(CF)C2)cc1 [Compound 109, (5S,6S)-5-(4-(2-(3-(fluoromethyl)azetidin-1-yl)ethoxy)phenyl)-6-(tetrahydro-2H-pyran-4-yl)-5,6,7,8-tetrahydronaphthalen-2-ol]	0.164 nM	−95.2%	–
Oc1ccc2c(c1)CC[C@@H](c1ccc(F)cc1)[C@H]2c1ccc(OCCN2CC(CF)C2)cc1 [Compound 103, (1S,2R)-1-[4-[2-[3-(fluoromethyl)azetidin-1-yl]ethoxy]phenyl]-2-(4-fluorophenyl)tetralin-6-ol]	38.6 nM	−78%	–
Oc1ccc2c(c1)CC[C@@H](c1ccccc1)[C@H]2c1ccc(OCCN2CC(C(F)F)C2)cc1 [Compound 116, (5S,6R)-5-(4-(2-(3-(difluoromethyl)azetidin-1-yl)ethoxy)phenyl)-6-phenyl-5,6,7,8-tetrahydronaphthalen-2-ol]	–	–	>0.10 µmol
C[C@@H](COc1ccc([C@H]2c3ccc(O)cc3CC[C@H]2c2ccccc2)cc1)N1CC[C@@H](CF)C1 [Compound 124, (5S,6R)-5-(4-((S)-2-((R)-3-(fluoromethyl)pyrrolidin-1-yl)propoxy)phenyl)-6-phenyl-5,6,7,8-tetrahydronaphthalen-2-ol]	0.0371 nM	−93.4%	–
Oc1ccc2c(c1)CC[C@H](c1ccccc1)[C@@H]2c1ccc(OCCN2CC(CF)C2)nc1 [Compound 127, (5S,6S)-5-(6-(2-(3-(fluoromethyl)azetidin-1-yl)ethoxy)pyridin-3-yl)-6-phenyl-5,6,7,8-tetrahydronaphthalen-2-ol]	0.0461 nM	−96.5%	–
Oc1cccc2c1[C@H](c1ccc(OCCN3CC(CF)C3)cc1)[C@H](c1ccccc1)CC2 [Compound 136, (7R,8S)-8-(4-(2-(3-(fluoromethyl)azetidin-1-yl)ethoxy)phenyl)-7-phenyl-5,6,7,8-tetrahydronaphthalen-1-ol]	186 nM	−80%	–
CS(=O)(=O)c1ccc([C@@H]2CCc3cc(O)ccc3[C@@H]2c2ccc(OCCN3CC(CF)C3)cc2)cc1 [Compound 115, (5S,6R)-5-(4-(2-(3-(fluoromethyl)azetidin-1-yl)ethoxy)phenyl)-6-(4-(methylsulfonyl)phenyl)-5,6,7,8-tetrahydronaphthalen-2-ol]	39.4 nM	−75%	–
Oc1ccc2c(c1)CC[C@H](c1ccccc1)[C@@H]2c1ccc(NCCN2CC[C@@H](CF)C2)cc1 [Compound 139, (5R,6S)-5-(4-((2-((R)-3-(fluoromethyl)pyrrolidin-1-yl)ethyl)amino)phenyl)-6-phenyl-5,6,7,8-tetrahydronaphthalen-2-ol]	228 nM	−50%	–
Oc1ccc2c(c1)CC[C@@H](c1ccccc1)[C@H]2c1ccc(NC2CN(CCCF)C2)cc1 [Compound 131, (5S,6R)-5-(4-((1-(3-fluoropropyl)azetidin-3-yl)amino)phenyl)-6-phenyl-5,6,7,8-tetrahydronaphthalen-2-ol]	13.8 nM	−35%	–
Oc1ccc2c(c1)CC[C@H](c1ccccc1)[C@@H]2c1ccc(OCCN2CC(CF)C2)cc1 [Compound 101, (1R,2S)-1-[4-[2-[3-(fluoromethyl)azetidin-1-yl]ethoxy]phenyl]-2-phenyl-tetralin-6-ol]	0.371 nM	−100%	–
CS(=O)(=O)c1ccc([C@H]2CCc3cc(O)ccc3[C@H]2c2ccc(OCCN3CC(CF)C3)cc2)cc1 [Compound 117, (5R,6S)-5-(4-(2-(3-(fluoromethyl)azetidin-1-yl)ethoxy)phenyl)-6-(4-(methylsulfonyl)phenyl)-5,6,7,8-tetrahydronaphthalen-2-ol]	0.227 nM	−91.4%	–
Oc1ccc2c(c1)CC[C@H](c1ccccc1)[C@@H]2c1ccc(OCCN2CCCC2)cc1 [lasofoxifene, (5R,6S)-6-phenyl-5-(4-(2-(pyrrolidin-1-yl)ethoxy)phenyl)-5,6,7,8-tetrahydronaphthalen-2-ol, reference compound]	–	−73.5%	–
Oc1ccc2c(c1)CC[C@H](c1ccccc1)[C@@H]2c1ccc(OCCN2CCC(CF)C2)cc1 (stereo partly drawn) [Compound 111, (5R,6S)-5-(4-(2-(3-(fluoromethyl)pyrrolidin-1-yl)ethoxy)phenyl)-6-phenyl-5,6,7,8-tetrahydronaphthalen-2-ol]	47 nM	−55%	–
Oc1ccc2c(c1)CC[C@H](c1ccc(F)cc1)[C@@H]2c1ccc(OCCN2CC(CF)C2)cc1 [Compound 106, (1R,2S)-1-[4-[2-[3-(fluoromethyl)azetidin-1-yl]ethoxy]phenyl]-2-(4-fluorophenyl)tetralin-6-ol]	0.977 nM	−97%	–
Oc1ccc2c(c1)CC[C@@H](c1ccccc1)[C@H]2c1ccc(OCCN2CC(CF)C2)cc1 [Compound 102, (1S,2R)-1-[4-[2-[3-(fluoromethyl)azetidin-1-yl]ethoxy]phenyl]-2-phenyl-tetralin-6-ol]	8.12 nM	−94.7%	–
